Legend:
JMJD2A = JMJD2A (Homo sapiens (Human), UniProt O75164); test: JMJD2A in vitro enzyme inhibition assay (TR-FRET); assay type: biochemical
Description: This assay determines the ability of a test compound to inhibit Jarid1A, Jarid1B, JMJD2C, and JMJD2A demethylase activity. […] Baculovirus expressed JMJD2A (GenBank Accession #NM_014663, AA 1-350) was purchased from BPS Bioscience (Cat#50123).
The ability of test compounds to inhibit the activity of JMJD2A was determined in 384-well plate format under the following reaction conditions: 2 nM JMJD2A, 300 nM H3K9me3-biotin labeled peptide (Anaspec cat #64360), 2 μM alpha-ketoglutaric acid in assay buffer of 50 mM HEPES, pH7.3, 0.005% Brij35, 0.5 mM TCEP, 0.2 mg/ml BSA, 50 μM sodium L-ascorbate, and 2 μM ammonium iron(II) sulfate. Reaction product was determined quantitatively by TR-FRET after the addition of detection reagent Phycolink Streptavidin-allophycocyanin (Prozyme) and Europium-anti-di-methylated histone H3 lysine 9 (H3K9me2) antibody (PerkinElmer) in the presence of 5 mM EDTA in LANCE detection buffer (PerkinElmer) at a final concentration of 50 nM and 1 nM, respectively.
The assay reaction was initiated by the following: 2 μl of the mixture of 900 nM H3K9me3-biotin labeled peptide and 6 μM alpha-ketoglutaric acid with 2 μl of 11-point serial diluted inhibitor in 3% DMSO were added to each well of plate, followed by the addition of 2 μl of 6 nM JMJD2A to initiate the reaction. The reaction mixture was incubated at room temperature for 30 minutes, and terminated by the addition of 6 μl of 5 mM EDTA in LANCE detection buffer containing 100 nM Phycolink Streptavidin-allophycocyanin and 2 nM Europium-anti-H3K9me2 antibody. Plates were read by EnVisionMultilabel Reader in TR-FRET mode (excitation at 320 nm, emission at 615 nm and 665 nm) after 1 hour incubation at room temperature. A ratio was calculated (665/615) for each well and fitted to determine inhibition constant (IC50).

KDM5A and KDM5B = test: In vitro cell-based assay: tri-methyl H3K4 immuno-blotting in ZR-75-1 cells (cellular inhibition of KDM5A/B); conditions: ZR-75-1 breast cancer cells, 72 hours, tri-methylated H3K4 level; read-out: IC50 ZR-75-1 cell-MOA
Description: This quantitative immuno-blotting assay measures the amount tri-methylated histone H3 at amino acid Lysine number 4, a specific substrate and product of the direct enzymatic activity of the histone demethylases KDM5A and KDM5B from extracts of the ZR-75-1 breast cancer cell line.
This assay is a fluorometric immunoassay for the quantification of tri-methyl H3K4 extracted from cells treated with test compound and is used as a measure of the cellular inhibition of KDM5A/B.
Extracts were prepared containing all of the cellular histone material using detergent based lysis and sonication methods. These lysates were subsequently normalized for total protein content using a colorimetric bicinchonic acid assay (MicroBCA Pierce/Thermo Scientific). Normalized cell extracts were then subjected to typical immuno-blotting procedures using NuPage reagents (Life Technologies). Electrophoretically separated histones were then transferred and immobilized using polyvinylidene difluoride membrane (Immobilon-FL Millipore). The amount of tri-methylated lysine 4 of histone H3 was detected using an antibody specific to the tri-methylated state (Cell Signaling Technologies) and quantified on an infrared imager using a densitometry software package (Odyssey CLx, Image Studio, Li-Cor). This background subtracted densitometry value was reported as a ration of the GAPDH amount for that sample and then calculated as a percent of the DMSO treated sample. The software package XL-fit (IDBS) was then used to calculate a relative IC50 value for the dilution series of a given test compound according to the equation: fit=(D+((Vmax*(x^n))/((x^n)+(Km^n)))).

Jarid1A = Jarid1A (Homo sapiens (Human), UniProt P29375); test: Jarid1A in vitro enzyme inhibition assay (TR-FRET); assay type: biochemical
Description: The enzymatic assay of Jarid1A activity is based upon Time Resolved-Fluorescence Resonance Energy Transfer (TR-FRET) detection.

FBXL10 = FBXL10 (Homo sapiens (Human), UniProt Q8NHM5); test: FBXL10 in vitro enzyme inhibition assay (AlphaScreen); assay type: biochemical
Outline: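 AlphaScreen read-out of H3K36me1 product, detected with anti-H3K36me1 antibody plus streptavidin donor and Protein A acceptor beads (final 10 μg/ml) in 50 mM HEPES pH 7.3, 10 mM NaCl, 0.005% Brij35, 5 mM EDTA, 2 mg/ml BSA. Beads incubated 2 h to overnight at room temperature; IC50 derived from AlphaScreen signal.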

JMJD2C = JMJD2C (Homo sapiens (Human), UniProt Q9H3R0); test: JMJD2C in vitro enzyme inhibition assay (TR-FRET); assay type: biochemical
Description: This assay determines the ability of a test compound to inhibit Jarid1A, Jarid1B, JMJD2C, and JMJD2A demethylase activity. […] Baculovirus expressed JMJD2C (GenBank Accession #BC143571, AA 2-372) was purchased from BPS Bioscience (Cat#50105).
The ability of test compounds to inhibit the activity of JMJD2C was determined in 384-well plate format under the following reaction conditions: 0.3 nM JMJD2C, 300 nM H3K9me3-biotin labeled peptide (Anaspec cat #64360), 2 μM alpha-ketoglutaric acid in assay buffer of 50 mM HEPES, pH7.3, 0.005% Brij35, 0.5 mM TCEP, 0.2 mg/ml BSA, 50 μM sodium L-ascorbate, and 2 μM ammonium iron(II) sulfate. Reaction product was determined quantitatively by TR-FRET after the addition of detection reagent Phycolink Streptavidin-allophycocyanin (Prozyme) and Europium-anti-di-methylated histone H3 lysine 9 (H3K9me2) antibody (PerkinElmer) in the presence of 5 mM EDTA in LANCE detection buffer (PerkinElmer) at a final concentration of 50 nM and 1 nM, respectively.
The assay reaction was initiated by the following: 2 μl of the mixture of 900 nM H3K9me3-biotin labeled peptide and 6 μM alpha-ketoglutaric acid with 2 μl of 11-point serial diluted inhibitor in 3% DMSO were added to each well of the plate, followed by the addition of 2 μl of 0.9 nM JMJD2C to initiate the reaction. The reaction mixture was incubated at room temperature for 30 minutes, and terminated by the addition of 6 μl of 5 mM EDTA in LANCE detection buffer containing 100 nM Phycolink Streptavidin-allophycocyanin and 2 nM Europium-anti-H3K9me2 antibody. Plates were read by EnVisionMultilabel Reader in TR-FRET mode (excitation at 320 nm, emission at 615 nm and 665 nm) after 1 hour incubation at room temperature. A ratio was calculated (665/615) for each well and fitted to determine inhibition constant (IC50).

Jarid1B = Jarid1B (Homo sapiens (Human), UniProt Q9UGL1); test: Jarid1B in vitro enzyme inhibition assay (TR-FRET); assay type: biochemical
Chain of Jarid1B (Q9UGL1 2-751): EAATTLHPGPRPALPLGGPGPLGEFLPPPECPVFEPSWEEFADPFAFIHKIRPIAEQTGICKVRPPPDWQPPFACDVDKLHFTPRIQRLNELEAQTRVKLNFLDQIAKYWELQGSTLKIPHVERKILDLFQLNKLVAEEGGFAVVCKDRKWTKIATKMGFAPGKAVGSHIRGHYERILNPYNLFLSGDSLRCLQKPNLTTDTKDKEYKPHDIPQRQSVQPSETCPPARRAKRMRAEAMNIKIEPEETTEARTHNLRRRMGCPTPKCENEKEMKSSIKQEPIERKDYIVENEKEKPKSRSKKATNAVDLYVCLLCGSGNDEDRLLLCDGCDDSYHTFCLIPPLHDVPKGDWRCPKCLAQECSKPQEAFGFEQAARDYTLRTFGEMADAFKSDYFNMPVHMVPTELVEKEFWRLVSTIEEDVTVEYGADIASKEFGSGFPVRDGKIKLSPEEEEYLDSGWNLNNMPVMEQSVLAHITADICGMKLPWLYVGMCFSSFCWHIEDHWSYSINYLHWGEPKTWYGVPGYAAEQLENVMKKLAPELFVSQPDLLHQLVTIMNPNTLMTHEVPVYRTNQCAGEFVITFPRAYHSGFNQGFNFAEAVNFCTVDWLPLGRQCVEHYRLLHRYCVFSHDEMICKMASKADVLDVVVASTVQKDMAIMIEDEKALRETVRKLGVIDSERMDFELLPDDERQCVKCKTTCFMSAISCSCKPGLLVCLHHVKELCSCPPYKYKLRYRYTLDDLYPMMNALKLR

Chain of JMJD2A (O75164 1-350): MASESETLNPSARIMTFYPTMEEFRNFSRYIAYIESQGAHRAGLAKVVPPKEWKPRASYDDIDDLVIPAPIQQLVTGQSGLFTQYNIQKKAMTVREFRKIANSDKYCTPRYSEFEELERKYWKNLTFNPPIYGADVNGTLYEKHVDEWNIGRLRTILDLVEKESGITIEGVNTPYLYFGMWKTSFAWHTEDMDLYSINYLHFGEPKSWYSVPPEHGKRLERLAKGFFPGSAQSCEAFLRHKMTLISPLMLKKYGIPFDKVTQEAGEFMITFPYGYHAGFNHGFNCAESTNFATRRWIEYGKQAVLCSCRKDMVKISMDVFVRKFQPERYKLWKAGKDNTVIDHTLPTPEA
Chain of Jarid1A (P29375 1-1090): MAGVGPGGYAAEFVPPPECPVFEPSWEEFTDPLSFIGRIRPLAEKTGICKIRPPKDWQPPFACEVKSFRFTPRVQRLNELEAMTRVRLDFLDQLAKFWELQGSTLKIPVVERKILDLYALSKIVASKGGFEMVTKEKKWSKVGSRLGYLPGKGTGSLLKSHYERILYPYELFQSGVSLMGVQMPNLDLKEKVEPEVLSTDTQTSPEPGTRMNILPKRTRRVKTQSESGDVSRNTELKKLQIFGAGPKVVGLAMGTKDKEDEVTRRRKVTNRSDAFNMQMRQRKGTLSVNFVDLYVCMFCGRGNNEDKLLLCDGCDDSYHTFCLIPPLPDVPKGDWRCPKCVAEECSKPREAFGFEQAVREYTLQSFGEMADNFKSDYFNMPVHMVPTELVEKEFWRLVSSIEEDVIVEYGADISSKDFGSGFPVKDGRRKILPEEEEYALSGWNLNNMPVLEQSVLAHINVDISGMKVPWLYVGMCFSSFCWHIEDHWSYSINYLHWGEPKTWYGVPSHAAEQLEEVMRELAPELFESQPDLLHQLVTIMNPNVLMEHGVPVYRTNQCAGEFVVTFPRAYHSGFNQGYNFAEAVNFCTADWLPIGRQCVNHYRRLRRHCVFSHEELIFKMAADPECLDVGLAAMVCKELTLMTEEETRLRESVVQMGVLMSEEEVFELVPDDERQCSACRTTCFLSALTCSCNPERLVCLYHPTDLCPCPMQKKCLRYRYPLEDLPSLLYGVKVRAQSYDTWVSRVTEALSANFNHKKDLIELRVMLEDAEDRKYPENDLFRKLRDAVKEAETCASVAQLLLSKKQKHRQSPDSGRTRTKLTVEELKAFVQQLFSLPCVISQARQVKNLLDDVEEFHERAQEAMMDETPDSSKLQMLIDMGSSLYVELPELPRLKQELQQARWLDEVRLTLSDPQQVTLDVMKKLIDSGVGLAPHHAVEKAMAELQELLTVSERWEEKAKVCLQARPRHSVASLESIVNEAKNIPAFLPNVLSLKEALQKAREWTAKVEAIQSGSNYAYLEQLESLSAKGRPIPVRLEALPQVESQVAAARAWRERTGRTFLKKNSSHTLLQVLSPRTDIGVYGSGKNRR
Chain of JMJD2C (Q9H3R0 2-372): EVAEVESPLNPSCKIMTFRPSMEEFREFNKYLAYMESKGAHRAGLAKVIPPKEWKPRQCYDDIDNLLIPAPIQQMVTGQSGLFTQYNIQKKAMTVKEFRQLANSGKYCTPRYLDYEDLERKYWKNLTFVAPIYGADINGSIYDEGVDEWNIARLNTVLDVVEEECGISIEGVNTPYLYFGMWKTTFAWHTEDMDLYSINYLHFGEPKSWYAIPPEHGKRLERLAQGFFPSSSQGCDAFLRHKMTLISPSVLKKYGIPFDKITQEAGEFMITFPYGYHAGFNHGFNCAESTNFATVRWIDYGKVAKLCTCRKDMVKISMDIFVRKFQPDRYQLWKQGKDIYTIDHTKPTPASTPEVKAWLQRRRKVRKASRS
Chain of FBXL10 (Q8NHM5 1-650): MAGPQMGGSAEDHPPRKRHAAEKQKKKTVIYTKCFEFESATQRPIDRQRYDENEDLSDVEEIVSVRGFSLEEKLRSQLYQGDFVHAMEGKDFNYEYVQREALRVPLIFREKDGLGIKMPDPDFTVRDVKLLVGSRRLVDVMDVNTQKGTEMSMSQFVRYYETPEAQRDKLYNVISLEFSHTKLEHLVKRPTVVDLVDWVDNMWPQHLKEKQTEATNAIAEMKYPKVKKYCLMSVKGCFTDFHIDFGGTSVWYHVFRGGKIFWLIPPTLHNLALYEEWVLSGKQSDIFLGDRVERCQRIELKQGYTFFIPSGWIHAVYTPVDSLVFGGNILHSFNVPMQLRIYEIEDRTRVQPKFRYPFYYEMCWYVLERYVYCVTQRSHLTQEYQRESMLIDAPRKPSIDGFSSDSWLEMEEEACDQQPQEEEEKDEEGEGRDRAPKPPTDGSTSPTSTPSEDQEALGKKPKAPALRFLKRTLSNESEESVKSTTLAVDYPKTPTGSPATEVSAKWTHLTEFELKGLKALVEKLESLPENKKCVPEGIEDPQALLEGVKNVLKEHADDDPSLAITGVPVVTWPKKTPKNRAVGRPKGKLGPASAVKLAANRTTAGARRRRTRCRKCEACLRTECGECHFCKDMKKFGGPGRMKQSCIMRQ

For `Cn1cnc(-c2cc(C(=O)O)ccn2)c1` [Example 1, 2-(1-methyl-1H-imidazol-4-yl)pyridine-4-carboxylic acid], the IC50 (JMJD2A) was no more than 100 nM, the IC50 (KDM5A and KDM5B) was greater than 10000 nM and the IC50 (Jarid1A) was no more than 100 nM. The IC50 (FBXL10) was no more than 100 nM, the IC50 (JMJD2C) was no more than 100 nM and the IC50 (Jarid1B) was no more than 100 nM.

`Cn1cnc(-c2cc(C(=O)O)ccn2)c1-c1ccc(F)cc1` [Example 23, 2-[5-(4-fluorophenyl)-1-methyl-1H-imidazol-4-yl]pyridine-4-carboxylic acid] gave an IC50 (JMJD2A) of 100 to 1000 nM, an IC50 (KDM5A and KDM5B) of 1000 to 10000 nM and an IC50 (Jarid1A) of no more than 100 nM. It also gave an IC50 (FBXL10) of no more than 100 nM, an IC50 (JMJD2C) of 100 to 1000 nM and an IC50 (Jarid1B) of no more than 100 nM.

`Cn1cnc(-c2cc(C(=O)O)ccn2)c1-c1ccc(Cl)c(F)c1` [Example 29, 2-[5-(4-chloro-3-fluorophenyl)-1-methyl-1H-imidazol-4-yl]pyridine-4-carboxylic acid] was tested, and the IC50 (KDM5A and KDM5B) was greater than 10000 nM, the IC50 (Jarid1A) was no more than 100 nM and the IC50 (FBXL10) was no more than 100 nM. It also gave an IC50 (JMJD2C) of 100 to 1000 nM and an IC50 (Jarid1B) of no more than 100 nM.

`CCCn1cnc(-c2cc(C(=O)O)ccn2)c1-c1ccc(Cl)c(F)c1` [Example 35, 2-[5-(4-chloro-3-fluorophenyl)-1-propyl-1H-imidazol-4-yl]pyridine-4-carboxylic acid] was tested, and the IC50 (KDM5A and KDM5B) was greater than 10000 nM, the IC50 (Jarid1A) was no more than 100 nM and the IC50 (FBXL10) was no more than 100 nM. For the same compound, the IC50 (JMJD2C) was 100 to 1000 nM and the IC50 (Jarid1B) was no more than 100 nM.

Work on `CCCn1cnc(-c2cc(C(=O)O)ccn2)c1` [Example 41, 2-(1-propyl-1H-imidazol-4-yl)pyridine-4-carboxylic acid] yielded an IC50 (KDM5A and KDM5B) of 1000 to 10000 nM, an IC50 (Jarid1A) of no more than 100 nM and an IC50 (FBXL10) of no more than 100 nM. The IC50 (JMJD2C) was no more than 100 nM and the IC50 (Jarid1B) was no more than 100 nM.

`O=C(O)c1ccnc(-c2cn(CCN3CCCC3)cn2)c1` [Example 43, 2-{1-[2-(pyrrolidin-1-yl)ethyl]-1H-imidazol-4-yl}pyridine-4-carboxylic acid] was tested, and the IC50 (JMJD2A) was no more than 100 nM, the IC50 (KDM5A and KDM5B) was greater than 10000 nM and the IC50 (Jarid1A) was no more than 100 nM. The IC50 (FBXL10) was 1000 to 10000 nM, the IC50 (JMJD2C) was no more than 100 nM and the IC50 (Jarid1B) was no more than 100 nM.

`Cn1cnc(-c2cc(-c3nn[nH]n3)ccn2)c1` [Example 62, 2-(1-methyl-1H-imidazol-4-yl)-4-(2H-tetrazol-5-yl)pyridine] gave an IC50 (JMJD2A) greater than 10000 nM, an IC50 (KDM5A and KDM5B) greater than 10000 nM and an IC50 (Jarid1A) of 100 to 1000 nM. The IC50 (FBXL10) was no more than 100 nM, the IC50 (JMJD2C) was greater than 10000 nM and the IC50 (Jarid1B) was 100 to 1000 nM.

With `O=C(O)c1ccnc(-c2cn(CCN(Cc3ccc(F)cc3)C3CC3)cn2)c1` [Example 71, 2-[1-[2-[cyclopropyl-[(4-fluorophenyl)methyl]amino]ethyl]imidazol-4-yl]pyridine-4-carboxylic acid] the IC50 (JMJD2A) was no more than 100 nM, the IC50 (KDM5A and KDM5B) was 1000 to 10000 nM and the IC50 (Jarid1A) was no more than 100 nM. It also gave an IC50 (FBXL10) of no more than 100 nM, an IC50 (JMJD2C) of no more than 100 nM and an IC50 (Jarid1B) of no more than 100 nM.

Work on `O=C(O)c1ccnc(-c2cn(CCNCC3CCC(F)(F)CC3)cn2)c1` [Example 72, 2-[1-[2-[(4,4-difluorocyclohexyl)methylamino]ethyl]imidazol-4-yl]pyridine-4-carboxylic acid] yielded an IC50 (KDM5A and KDM5B) of 1000 to 10000 nM, an IC50 (Jarid1A) of no more than 100 nM and an IC50 (FBXL10) of no more than 100 nM. For the same compound, the IC50 (JMJD2C) was no more than 100 nM and the IC50 (Jarid1B) was no more than 100 nM.

`O=C(O)c1ccnc(-c2cn(CCN3CCCc4ccccc43)cn2)c1` [Example 88, 2-[1-[2-(3,4-dihydro-2H-quinolin-1-yl)ethyl]imidazol-4-yl]pyridine-4-carboxylic acid] was tested, and the IC50 (JMJD2A) was no more than 100 nM, the IC50 (KDM5A and KDM5B) was 1000 to 10000 nM and the IC50 (Jarid1A) was no more than 100 nM. For the same compound, the IC50 (FBXL10) was no more than 100 nM, the IC50 (JMJD2C) was 100 to 1000 nM and the IC50 (Jarid1B) was no more than 100 nM.

`O=C(O)c1ccnc(-c2cn(CCc3ccc(F)cc3)cn2)c1` [Example 92, 2-[1-[2-(4-fluorophenyl)ethyl]imidazol-4-yl]pyridine-4-carboxylic acid] was tested, and the IC50 (KDM5A and KDM5B) was 1000 to 10000 nM, the IC50 (Jarid1A) was no more than 100 nM and the IC50 (FBXL10) was no more than 100 nM. For the same compound, the IC50 (JMJD2C) was no more than 100 nM and the IC50 (Jarid1B) was no more than 100 nM.

`O=C(O)c1ccnc(-c2cn(CCc3ccccc3F)cn2)c1` [Example 93, 2-[1-[2-(2-fluorophenyl)ethyl]imidazol-4-yl]pyridine-4-carboxylic acid] showed an IC50 (KDM5A and KDM5B) of 1000 to 10000 nM, an IC50 (Jarid1A) of no more than 100 nM and an IC50 (FBXL10) of no more than 100 nM. For the same compound, the IC50 (JMJD2C) was no more than 100 nM and the IC50 (Jarid1B) was no more than 100 nM.

With `COc1ccccc1CCn1cnc(-c2cc(C(=O)O)ccn2)c1` [Example 95, 2-[1-[2-(2-methoxyphenyl)ethyl]imidazol-4-yl]pyridine-4-carboxylic acid] the IC50 (JMJD2A) was 100 to 1000 nM, the IC50 (KDM5A and KDM5B) was greater than 10000 nM and the IC50 (Jarid1A) was no more than 100 nM. The IC50 (FBXL10) was no more than 100 nM, the IC50 (JMJD2C) was 100 to 1000 nM and the IC50 (Jarid1B) was no more than 100 nM.

In the case of `Cc1ccccc1CCn1cnc(-c2cc(C(=O)O)ccn2)c1` [Example 96, 2-[1-[2-(2-methylphenyl)ethyl]imidazol-4-yl]pyridine-4-carboxylic acid], the IC50 (JMJD2A) is reported as 100 to 1000 nM, the IC50 (KDM5A and KDM5B) is reported as 1000 to 10000 nM and the IC50 (Jarid1A) is reported as no more than 100 nM. The IC50 (FBXL10) was no more than 100 nM, the IC50 (JMJD2C) was 100 to 1000 nM and the IC50 (Jarid1B) was no more than 100 nM.

Compound `O=C(O)c1ccnc(-c2cn(CCc3ccccc3Cl)cn2)c1` [Example 97, 2-[1-[2-(2-chlorophenyl)ethyl]imidazol-4-yl]pyridine-4-carboxylic acid] has an IC50 (JMJD2A) of no more than 100 nM, an IC50 (KDM5A and KDM5B) of 1000 to 10000 nM and an IC50 (Jarid1A) of no more than 100 nM. It also gave an IC50 (FBXL10) of no more than 100 nM, an IC50 (JMJD2C) of 100 to 1000 nM and an IC50 (Jarid1B) of no more than 100 nM.

For `O=C(O)c1ccnc(-c2cn(CCc3ccccc3C(F)(F)F)cn2)c1` [Example 98, 2-[1-[2-[2-(trifluoromethyl)phenyl]ethyl]imidazol-4-yl]pyridine-4-carboxylic acid], the IC50 (JMJD2A) was no more than 100 nM, the IC50 (KDM5A and KDM5B) was greater than 10000 nM and the IC50 (Jarid1A) was no more than 100 nM. It also gave an IC50 (FBXL10) of no more than 100 nM, an IC50 (JMJD2C) of no more than 100 nM and an IC50 (Jarid1B) of no more than 100 nM.

Compound `O=C(O)c1ccnc(-c2cn(C3Cc4ccccc4C3)cn2)c1` [Example 99, 2-[1-(2,3-dihydro-1H-inden-2-yl)imidazol-4-yl]pyridine-4-carboxylic acid] has an IC50 (JMJD2A) of 100 to 1000 nM, an IC50 (KDM5A and KDM5B) of 1000 to 10000 nM and an IC50 (Jarid1A) of no more than 100 nM. It also gave an IC50 (FBXL10) of no more than 100 nM, an IC50 (JMJD2C) of 100 to 1000 nM and an IC50 (Jarid1B) of no more than 100 nM.

For `O=C(O)c1ccnc(-c2cn(Cc3ccccc3)cn2)c1` [Example 100, 2-(1-benzylimidazol-4-yl)pyridine-4-carboxylic acid], the IC50 (KDM5A and KDM5B) was 1000 to 10000 nM, the IC50 (Jarid1A) was no more than 100 nM and the IC50 (FBXL10) was no more than 100 nM. For the same compound, the IC50 (JMJD2C) was 100 to 1000 nM and the IC50 (Jarid1B) was no more than 100 nM.

Work on `O=C(O)c1ccnc(-c2cn(Cc3ccc(F)cc3)cn2)c1` [Example 101, 2-[1-[(4-fluorophenyl)methyl]imidazol-4-yl]pyridine-4-carboxylic acid] yielded an IC50 (JMJD2A) of 100 to 1000 nM, an IC50 (KDM5A and KDM5B) of 1000 to 10000 nM and an IC50 (Jarid1A) of no more than 100 nM. The IC50 (FBXL10) was no more than 100 nM, the IC50 (JMJD2C) was 100 to 1000 nM and the IC50 (Jarid1B) was no more than 100 nM.

Compound `O=C(O)c1ccnc(-c2cn(Cc3ccccc3F)cn2)c1` [Example 102, 2-[1-[(2-fluorophenyl)methyl]imidazol-4-yl]pyridine-4-carboxylic acid] has an IC50 (JMJD2A) of 100 to 1000 nM, an IC50 (KDM5A and KDM5B) of 1000 to 10000 nM and an IC50 (Jarid1A) of no more than 100 nM. For the same compound, the IC50 (FBXL10) was no more than 100 nM, the IC50 (JMJD2C) was 100 to 1000 nM and the IC50 (Jarid1B) was no more than 100 nM.

With `CC(c1ccccc1)n1cnc(-c2cc(C(=O)O)ccn2)c1` (stereo not drawn) [Example 103] the IC50 (JMJD2A) was no more than 100 nM, the IC50 (KDM5A and KDM5B) was 1000 to 10000 nM and the IC50 (Jarid1A) was no more than 100 nM. The IC50 (FBXL10) was no more than 100 nM, the IC50 (JMJD2C) was no more than 100 nM and the IC50 (Jarid1B) was no more than 100 nM.

`O=C(O)c1ccnc(-c2cn(Cc3cccc(F)c3)cn2)c1` [Example 104, 2-[1-[(3-fluorophenyl)methyl]imidazol-4-yl]pyridine-4-carboxylic] was tested, and the IC50 (KDM5A and KDM5B) was greater than 10000 nM, the IC50 (Jarid1A) was no more than 100 nM and the IC50 (FBXL10) was no more than 100 nM. It also gave an IC50 (JMJD2C) of 100 to 1000 nM and an IC50 (Jarid1B) of no more than 100 nM.

For `CC(C)(Cn1cnc(-c2cc(C(=O)O)ccn2)c1)c1ccccc1Cl` [Example 105, 2-[1-[2-(2-chlorophenyl)-2-methylpropyl]imidazol-4-yl]pyridine-4-carboxylic acid], the IC50 (JMJD2A) was 100 to 1000 nM, the IC50 (KDM5A and KDM5B) was 1000 to 10000 nM and the IC50 (Jarid1A) was no more than 100 nM. The IC50 (FBXL10) was no more than 100 nM, the IC50 (JMJD2C) was 1000 to 10000 nM and the IC50 (Jarid1B) was no more than 100 nM.

In the case of `CC(Cc1ccccc1)n1cnc(-c2cc(C(=O)O)ccn2)c1` (stereo not drawn) [Example 106, 2-[1-(1-phenylpropan-2-yl)imidazol-4-yl]pyridine-4-carboxylic acid], the IC50 (KDM5A and KDM5B) is reported as 1000 to 10000 nM, the IC50 (Jarid1A) is reported as no more than 100 nM and the IC50 (FBXL10) is reported as no more than 100 nM. The IC50 (JMJD2C) was 100 to 1000 nM and the IC50 (Jarid1B) was no more than 100 nM.
